Measurements published in patent publication EP0992493A1, “Substituted benzoylpiperidine derivatives and their use as Neurokinin antagonists” (PFIZER INC., priority 1998, dated 2000).
Structures can show the parent of a compound that is named as a salt. Where two headings read alike, the source gives them in different places.

Key:
human NK2 receptor = biological target: T1, human NK2 receptor (Homo sapiens, UniProt P21452); experiment: Human NK2 receptor affinity: competition with [3H]-NKA for binding to CHO cell membranes
T1 sequence (P21452 1-398): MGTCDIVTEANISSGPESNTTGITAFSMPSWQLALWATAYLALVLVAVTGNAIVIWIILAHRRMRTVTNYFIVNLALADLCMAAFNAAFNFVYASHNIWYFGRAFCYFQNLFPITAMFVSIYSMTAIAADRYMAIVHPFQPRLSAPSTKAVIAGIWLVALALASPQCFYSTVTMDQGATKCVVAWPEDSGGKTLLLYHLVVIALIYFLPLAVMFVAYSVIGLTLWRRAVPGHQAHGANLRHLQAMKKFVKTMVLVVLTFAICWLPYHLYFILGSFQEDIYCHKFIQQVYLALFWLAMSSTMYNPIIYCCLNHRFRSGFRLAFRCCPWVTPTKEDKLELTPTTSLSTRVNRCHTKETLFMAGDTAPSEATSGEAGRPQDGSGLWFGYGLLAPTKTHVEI
Description: The affinity of the compounds of formula (I) and their salts for the human NK2 receptor can be tested in vitro by testing their ability to compete with [^3H]-NKA (neurokinin A) for binding to membranes prepared from Chinese hamster ovary cells expressing the cloned human NK2 receptor. In this method, washed Chinese hamster ovary cell membranes are prepared as described for the previous method where IM9 cells are used instead. The membranes are incubated (90 min, 25°C) with [^3H]-NKA and with a range of concentrations of the test compound. Non-specific binding was determined in the presence of 10µM NKA.
Human NK2 receptor affinity was tested in vitro by testing the ability to compete with [^3H]-NKA for binding to membranes prepared from Chinese hamster ovary cells expressing the cloned human NK2 receptor using the method set out on page 10. The pKi was then determined.
(§1) The "pKi" measurement is the negative logarithm of the molar affinity of the test compound for the receptor as determined in radioligand binding assays using standard protocols. A 1.0 log. unit difference in either the NK2 or NK3 receptor affinity figures corresponds to a 10-fold activity difference.

[1] = In vitro metabolic stability: disappearance half-life in human liver microsomes (HLM/37); assay type: in vitro ADME; settings: human liver microsomes HLM/37 (0.5µM cytochrome P450), test compound 1µM, 37°C, NADPH, 60 minutes
Description: The in vitro metabolic stability of the compounds of the formula (I) and their salts can be tested by incubating samples for 1 hour at 37°C in the presence of a "moderate activity" (re. concentrations of cytochrome p450 enzymes present) human liver microsomal preparation (prepared from human liver homogenates). The samples were analysed by HPLC at regular intervals during this one hour period and the half-life (t½) determined (in minutes).
The metabolic stability of the compounds was determined in vitro by the method described on page 11 according to the following experimental protocol.
Transplant-quality human liver tissue was obtained from the International Institute for the Advancement of Medicine (Exton, PA). The donors ranged in age from 26 to 65 years old and included 3 males and 3 females. Hepatic microsomes were prepared from individual human livers by the process of differential centrifugation. Briefly, the liver tissue was homogenised in 50mM Tris HCI (pH 7.4) containing 250mM sucrose and then centrifuged at 9,000G for 20 minutes to remove the cell debris and nuclear fraction. The supernatant layer was removed and further centrifuged at 105,000G for 60 minutes to pellet the microsomal fraction. […] The cytochrome P450 content was determined using the method of Omura, T., Sato, R., J. Biol. Chem., 239, 2379-2385 (1964) and the protein concentration was determined using the method of Lowry et al., J. Biol. Chem., 193, 265-275 (1951), with bovine serum albumin as the protein standard.
The metabolic activities of the 6 major drug metabolising cytochrome P450 enzymes were determined for HLM/37 and compared to values obtained from a bank of individual human livers (n = 19). […]
Aliquots (100µl) were removed from the incubation at 0, 3, 5, 10, 15, 20, 30, 45 and 60 minutes after the addition of NADPH. […] After centrifugation 150µl aliquots were removed and 120µl of each of these analysed by HPLC on a Hypersil HS C18 5µ column (50x4.6mm) with a mobile phase of methanol:water (90:10, by volume) containing 2mM ammonium acetate. […]

NK3 receptor = biological target: T2, NK3 receptor (Cavia porcellus, UniProt P30098); experiment: NK3 receptor affinity: inhibition of [3H]-senktide binding to guinea pig cortex membranes
T2 construct: membranes from guinea pig cortex; from tissue; host or cells: guinea pig cortex membranes
T2 sequence (P30098 1-440): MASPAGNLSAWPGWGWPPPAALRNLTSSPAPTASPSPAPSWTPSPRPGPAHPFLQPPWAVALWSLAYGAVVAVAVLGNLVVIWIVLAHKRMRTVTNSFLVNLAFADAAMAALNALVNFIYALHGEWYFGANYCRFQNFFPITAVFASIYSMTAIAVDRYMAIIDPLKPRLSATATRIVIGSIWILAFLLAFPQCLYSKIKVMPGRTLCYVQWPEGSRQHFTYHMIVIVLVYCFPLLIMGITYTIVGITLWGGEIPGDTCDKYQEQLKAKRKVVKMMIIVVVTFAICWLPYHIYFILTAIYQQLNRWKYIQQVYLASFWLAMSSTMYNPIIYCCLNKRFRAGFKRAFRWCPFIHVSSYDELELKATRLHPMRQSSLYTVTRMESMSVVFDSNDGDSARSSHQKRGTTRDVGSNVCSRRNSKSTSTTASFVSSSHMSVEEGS
Description: The compounds of the formula (I) and their salts can be tested for NK3 receptor affinity, in vitro, by testing their ability to inhibit [^3H]-senktide binding to membranes from guinea pig cortex using the method of Guard, et al, Br.J.Pharmacol., 99, 767-773 (1990).
NK3 receptor affinity was tested, in vitro, by the method described on pages 10 and 11 by testing the ability to inhibit [^3H]-senktide binding to membranes from guinea pig cortex using the method of Guard, et al, Br.J.Pharmacol., 99, 767-773 (1990). The pKi was then determined.
as §1

| Compound | Ki (human NK2 receptor) [nM] | half-life at 1 µM [1] [min] | Ki (NK3 receptor) [nM] | Ki (human NK2 receptor; [3H]-NKA, membranes from Chinese hamster ovary cells expressing the cloned human NK2 receptor, 90 min, 25°C, read-out: pKi (NK2) (converted)) [nM] | Ki (NK3 receptor; [3H]-senktide, membranes from guinea pig cortex, read-out: pKi (NK3) (converted)) [nM] |
| --- | --- | --- | --- | --- | --- |
| CS(=O)(=O)N1CC(C2CCN(CC[C@]3(c4ccc(Cl)c(Cl)c4)CCCN(C(=O)c4ccccc4)C3)CC2)C1 [Example 10, 3(S)-1-Benzoyl-3-(3,4-dichlorophenyl)-3-{2-[4-(1-methylsulfonylazetidin-3-yl)piperidin-1-yl]ethyl}piperidine] | 5.01 | 32 | 20 | – | – |
| O=C(c1ccccc1)N1CCC[C@](CCN2CCC(C3CCOCC3)CC2)(c2ccc(Cl)c(Cl)c2)C1 [Example 2] | – | 28 | – | 6.31 | 63.1 |
| CS(=O)(=O)N1CCC(C2CN(CC[C@]3(c4ccc(Cl)c(Cl)c4)CCCN(C(=O)c4ccccc4)C3)C2)CC1 [Example 6, 3(S)-1-Benzoyl-3-(3,4-dichlorophenyl)-3-{2-[3-(1-methylsulphonyl-4-piperidinyl)azetidin-1-yl]ethyl}piperidine hydrochloride] | 5.01 | 53 | 39.8 | – | – |
